Active and inactive are the calls of the source. The rule behind the calls is not given here.
Experiments:
Streptococcus pneumoniae [1] = test: Antibacterial activity against tetracycline resistant Streptococcus pneumoniae clinical isolate expressing erm(B) and tet(M) gene by agar dilution CLSI method; assay type: functional
Streptococcus pneumoniae [2] = test: Antibacterial activity against tnpR/tnpA positive tetracycline resistant Streptococcus pneumoniae clinical isolate expressing Tn3872 carrying erm(B) and tet(M) gene at 1000 ug by disk diffusion method; assay type: functional, organism-based
Streptococcus pneumoniae [3] = test: Antibacterial activity against aphA-3 positive tetracycline resistant Streptococcus pneumoniae clinical isolate expressing Tn6003 carrying erm(B)and tet(M) gene at 1000 ug by disk diffusion method; assay type: functional, organism-based
Streptococcus pneumoniae [4] = test: Antibacterial activity against tetracycline resistant Streptococcus pneumoniae clinical isolate expressing Tn6002 carrying erm(B) and tet(M) gene at 1000 ug by disk diffusion method; assay type: functional, organism-based

CC[C@H]1OC(=O)[C@H](C)[C@@H](O[C@H]2C[C@@](C)(OC)[C@@H](O)[C@H](C)O2)[C@H](C)[C@@H](O[C@@H]2O[C@H](C)C[C@H](N(C)C)[C@H]2O)[C@](C)(O)C[C@@H](C)C(=O)[C@H](C)[C@@H](O)[C@]1(C)O [ERYTHROMYCIN]
MIC (Streptococcus pneumoniae [1]): > 128 µg/mL

NC[C@H]1O[C@H](O[C@H]2[C@H](O)[C@@H](O[C@H]3O[C@H](CO)[C@@H](O)[C@H](N)[C@H]3O)[C@H](N)C[C@@H]2N)[C@H](O)[C@@H](O)[C@@H]1O
Activity (Streptococcus pneumoniae [2]): Active
Activity (Streptococcus pneumoniae [3]): inactive
Activity (Streptococcus pneumoniae [4]): Active

CN(C)[C@@H]1C(O)=C(C(N)=O)C(=O)[C@@]2(O)C(O)=C3C(=O)c4c(O)cccc4[C@@](C)(O)[C@H]3C[C@@H]12 [TETRACYCLINE]
MIC (Streptococcus pneumoniae [1]): > 32 µg/mL

— ChEMBL document CHEMBL1255326, “erm(B)-carrying elements in tetracycline-resistant pneumococci and correspondence between Tn1545 and Tn6003” (2008)
